The values that follow come from the NIST ThermoML archive (doi:10.1021/acs.jced.8b00536).

± gives the expanded uncertainty stated by the source.

The conditions of data set [1]: Crystal; DSC.
The nature of data set [2]: Molar enthalpy of transition or fusion. As to conditions: Crystal; DSC.

As for `c1ccc(N(c2ccc(-c3ccc(N(c4ccccc4)c4cccc5ccccc45)cc3)cc2)c2cccc3ccccc23)cc1` [N,N'-di(1-naphthyl)-N,N'-diphenyl benzidine], the Triple point temperature in data set [1] is 551.75 ± 1.2 K. The “Molar enthalpy of transition or fusion” value in data set [2] amounted to 14.1 ± 1.43 kcal/mol.

In the case of `c1ccc2cc3cc4ccccc4cc3cc2c1` [2,3-benzanthracene], in data set [1], the Triple point temperature came out at 623.75 ± 1.2 K. The “Molar enthalpy of transition or fusion” value in data set [2] turned out to be 8.94 ± 0.908 kcal/mol.
